Experimental findings from paper PMC2858264 (Biochemistry, 2010) are described below.

The target in the assay is T1, rR-HPCDH1 (Xanthobacter versatilis, UniProt Q56840).
T1 sequence (Q56840 2-250): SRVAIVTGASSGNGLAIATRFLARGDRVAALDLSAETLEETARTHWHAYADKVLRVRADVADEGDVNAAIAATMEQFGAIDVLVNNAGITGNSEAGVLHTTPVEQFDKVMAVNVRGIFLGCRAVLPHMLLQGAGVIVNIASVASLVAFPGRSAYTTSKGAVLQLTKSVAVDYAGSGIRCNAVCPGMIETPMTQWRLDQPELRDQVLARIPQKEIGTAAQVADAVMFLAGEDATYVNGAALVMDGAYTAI
In words: NADH absorbance at […] nm, initial rates. It counts as biochemical.

In the case of `CC(C)(O)CSCCS(=O)(=O)O` [M-HPC, 2-(2-methyl-2-hydroxypropylthio)ethanesulfonate], the inhibition constant Ki is 290 ± 14 µM.

One may read the Ki as a dissociation constant, usually derived from enzyme kinetics or from competition with a known ligand. A higher Ki goes with weaker binding.
